Series [1] addresses T1, Human immunodeficiency virus type 1 reverse transcriptase (Human immunodeficiency virus 1, UniProt Q72547). Kind of series: Inhibition of wild-type HIV1 3B reverse transcriptase.
The target of series [2] is T2, Human immunodeficiency virus type 1 reverse transcriptase (Human immunodeficiency virus 1, UniProt Q72547, K103N/Y181C). The series is described as follows: Inhibition of HIV1 RES056 reverse transcriptase K103N/Y181C double mutant.
Series [3] in a line: Selectivity index, ratio of CC50 for human MT4 cells to EC50 for wild-type HIV1 3B reverse transcriptase infected in human MT4 cells. The series is classed as toxicity, cell-based. Particulars: read-out: Ratio CC50/EC50.
For series [4], the system named is Human immunodeficiency virus 1. The series is described as follows: Antiviral activity against wild-type HIV1 infected in human TZM-bl cells pretreated with cells for 30 mins followed by viral infection and measured after 48 hrs by luciferase reporter gene assay. In kind it is functional, organism-based. To be noted: Human immunodeficiency virus 1, TZM-bl. (In general: Reporter assays use an easily measured gene product as a stand-in for the process of interest.)

Series [5] in a line: Selectivity index, ratio of CC50 for human TZM-bl cells to EC50 for wild-type HIV1 infected in human TZM-bl cells. Particulars: read-out: Ratio CC50/EC50. The series is classed as toxicity, cell-based.
The target in series [6] is T1, Human immunodeficiency virus type 1 reverse transcriptase. The series is described as follows: Inhibition of HIV1 reverse transcriptase.
For series [7], the target named is Human immunodeficiency virus type 1 reverse transcriptase (Human immunodeficiency virus 1, UniProt Q72547, Y188L). Kind of series: Inhibition of recombinant HIV1 reverse transcriptase Y188L mutant.
Series [8] has as its target Human immunodeficiency virus type 1 reverse transcriptase (Human immunodeficiency virus 1, UniProt Q72547, Y181C). The series is described as follows: Inhibition of recombinant HIV1 reverse transcriptase Y181C mutant.
Series [9] addresses Human immunodeficiency virus type 1 reverse transcriptase (Human immunodeficiency virus 1, UniProt Q72547, L100I). Kind of series: Inhibition of recombinant HIV1 reverse transcriptase L100I mutant.
For series [10], the target named is Human immunodeficiency virus type 1 reverse transcriptase (Human immunodeficiency virus 1, UniProt Q72547, K103N). Kind of series: Inhibition of recombinant HIV1 reverse transcriptase K103N mutant.
In series [11] the target is T2, Human immunodeficiency virus type 1 reverse transcriptase. Kind of series: Inhibition of recombinant HIV1 reverse transcriptase K103N/Y181C double mutant.
Series [12] concerns the target Human immunodeficiency virus type 1 reverse transcriptase (Human immunodeficiency virus 1, UniProt Q72547, K103N/L100I). Kind of series: Inhibition of recombinant HIV1 reverse transcriptase L100I/K103N double mutant.

For `N#Cc1ccc(Nc2nccc(/C(=N\N)c3ccc4ccccc4c3)n2)cc1`, the EC50 – broadly, the concentration at which the effect is half-maximal – came out at 8.4 nM in series [1] and 8400 nM in series [2].
Take `N#Cc1ccc(Nc2nccc(Oc3ccc4ccccc4c3Br)n2)cc1`: in series [3], the selectivity ratio was 65600.
With `Cc1cc(/C=C/C#N)cc(C)c1Nc1ccc(F)c(Nc2ccc(C#N)cc2)n1`, the EC50 in series [4] amounted to 1.6 nM. For the same compound, the selectivity ratio in series [5] was 62500.
The compound `CC(=O)c1ccc(C)cc1NC(C(N)=O)c1c(Cl)cccc1Cl` (stereo not drawn) [LOVIRIDE] showed an EC50 in series [6] of 13 nM.
Regarding `Cc1cc(C)c(Nc2ccnc(Nc3ccc(C(N)=O)cc3)n2)c(C)c1`, the IC50 (usually the concentration that inhibits the measured activity by half) in series [7] was greater than 10000 nM; in [8] it was greater than 10000 nM; in series [9] it was greater than 10000 nM; in series [1], 63.1 nM; in series [10], greater than 10000 nM.
Consider `Cc1cc(C)c(Nc2ccnc(Nc3ccc(C#N)cc3)n2)c(C)c1` [DAPIVIRINE], for which the IC50 in [7] was 39.8 nM; in series [8] it was 7.94 nM; in series [11], 39.8 nM; in series [9], 15.8 nM; in series [12], greater than 10000 nM; in series [1], 1 nM. Moreover, the IC50 in series [10] is 3.98 nM.
For `Cc1cc(/C=C/C#N)cc(C)c1Nc1ncc(F)c(Nc2ccc(C#N)cc2)n1`, the EC50 in series [4] is 0.9 nM. Also, the selectivity ratio in series [5] is greater than 42000.
The matching figures for `Cc1cc(/C=C/C#N)cc(F)c1Nc1ccc(F)c(Nc2ccc(C#N)cc2)n1`: 1 nM and greater than 100000.
As for `N#Cc1ccc(Nc2nccc(Oc3ccc4cc(C#N)ccc4c3Br)n2)cc1`, the selectivity ratio in [3] was determined as 181000.
Turning to `Cc1cc(C#N)cc(C)c1Nc1ncc(F)c(Nc2ccc(C#N)cc2)n1`, the EC50 in series [4] stood at 2.8 nM. Further, the selectivity ratio in series [5] was 36000.
As for `Cc1cc(C)c(Nc2ccnc(Nc3ccc(Cl)cc3)n2)c(C)c1`, the IC50 in series [7] was 2510 nM; in series [8], 79.4 nM; in [9], 200 nM; in [12], greater than 10000 nM; in series [1], 3.16 nM; in [10], 25.1 nM.
As for `N#Cc1ccc(Nc2nccc(/C(=N\N)c3ccccc3Br)n2)cc1`, the EC50 in series [1] is 1.7 nM; in [2] it was greater than 9200 nM.

The values above are taken from ChEMBL document CHEMBL4265932, “Advances in diarylpyrimidines and related analogues as HIV-1 nonnucleoside reverse transcriptase inhibitors” (Eur J Med Chem, 2018).
